Assay results as given in ChEMBL document CHEMBL1201862, “PubChem BioAssay data set” (2004).
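How tested: cells in 96-well plates exposed to compound for 48 hours at five concentrations. GI50: concentration for 50% inhibition of growth.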 Active and inactive are the calls of the source. Rule as the data show it: active = GI50 up to about 1.1 µM and inactive = higher. Starred links: 1 amine or outer side, 2 acyl side, 3 side chain; linkers in the order of their positions; H or OH if unused. Positions of bridges follow the written chain, without caps; N, C: chain ends. Non-standard residues stand in square brackets, D forms with d. Residues, ends and D or L forms follow the SMILES beside them. ξ: configuration not given here. X37 = CC[C@H](C)[C@@H](N[*:1])[C@@H](O)CC(=O)O[C@H](C(=O)[C@H](C)C(=O)[*:2])C(C)C; NMeY = CN[C@@H](Cc1ccc(O)cc1)C(=O)O; dNMeL = CN[C@H](CC(C)C)C(=O)O; ξΔPro = O=C(O)C1C=CCN1

Columns and labels:
Test in all cases: NCI anticancer screen, dose series, 48 h
HCC 2998 = test system: HCC 2998
HCT-15 = test system: HCT-15
Hs-578T = test system: Hs-578T
MCF7 = test system: MCF7
MDA-MB-231 = test system: MDA-MB-231
MDA-MB-435 = test system: MDA-MB-435
NCI-H226 = test system: NCI-H226
NCI-H460 = test system: NCI-H460
NCI/ADR-RES = test system: NCI/ADR-RES
OVCAR-4 = test system: OVCAR-4
OVCAR-5 = test system: OVCAR-5
RPMI-8226 = test system: RPMI-8226
SF-295 = test system: SF-295
SK-MEL-28 = test system: SK-MEL-28
SK-MEL-2 = test system: SK-MEL-2
SN12C = test system: SN12C
SNB-19 = test system: SNB-19
SW-620 = test system: SW-620
U-251 = test system: U-251
UACC-62 = test system: UACC-62

Row | SMILES | GI50 (HCC 2998) | GI50 (HCT-15) | GI50 (Hs-578T) | GI50 (MCF7) | GI50 (MDA-MB-231) | GI50 (MDA-MB-435) | GI50 (NCI-H226) | GI50 (NCI-H460) | GI50 (NCI/ADR-RES) | GI50 (OVCAR-4) | GI50 (OVCAR-5) | GI50 (RPMI-8226) | GI50 (SF-295) | GI50 (SK-MEL-28) | GI50 (SK-MEL-2) | GI50 (SN12C) | GI50 (SNB-19) | GI50 (SW-620) | GI50 (U-251) | GI50 (UACC-62)
1 | NC(CSCc1ccccc1)C(=O)O (stereo not given) | > 100 µM (inactive) | > 100 µM | > 100 µM (inactive) | > 100 µM (inactive) | > 100 µM (inactive) | > 100 µM (inactive) | > 100 µM (inactive) | > 100 µM (inactive) | > 100 µM (inactive) | > 100 µM (inactive) | > 100 µM (inactive) | > 100 µM (inactive) | > 100 µM (inactive) | > 100 µM (inactive) | > 100 µM (inactive) | > 100 µM (inactive) | > 100 µM (inactive) | > 100 µM (inactive) | > 100 µM (inactive) | > 100 µM (inactive)
2 | CCCCC(=O)NC1(c2cc3ccccc3s2)CCCCC1 | > 100 µM (inactive) | > 100 µM | > 100 µM (inactive) | 85.9 µM (inactive) | > 100 µM (inactive) | > 100 µM (inactive) | > 100 µM (inactive) | > 100 µM (inactive) | > 100 µM (inactive) | > 100 µM (inactive) | > 100 µM (inactive) | 8.81 µM (inactive) | > 100 µM (inactive) | > 100 µM (inactive) | > 100 µM (inactive) | > 100 µM (inactive) | > 100 µM (inactive) | > 100 µM (inactive) | > 100 µM (inactive) | 62.1 µM (inactive)
3 | CC(=O)N1C(=O)/C(=C\C(=O)c2ccc(Cl)cc2)c2ccccc21 | 15.9 µM (inactive) | 6.73 µM | 19.5 µM (inactive) | 21 µM (inactive) | 13.9 µM (inactive) | 14.1 µM (inactive) | 19.9 µM (inactive) | 15 µM (inactive) | 20.6 µM (inactive) | 16.7 µM (inactive) | 20 µM (inactive) | 24.4 µM (inactive) | 21.1 µM (inactive) | 14 µM (inactive) | 18.5 µM (inactive) | 15.3 µM (inactive) | 24.8 µM (inactive) | 4.24 µM (inactive) | 15.5 µM (inactive) | 13.4 µM (inactive)
4 | COC(C/C(=C/CO[Si](C(C)C)(C(C)C)C(C)C)C(=O)N(C(=O)OC(C)(C)C)c1ccccc1I)OC | 40.6 µM (inactive) | 33.4 µM | 83.4 µM (inactive) | 18.7 µM (inactive) | > 10 µM (inactive) | 32.5 µM (inactive) | > 100 µM (inactive) | 31.8 µM (inactive) | > 100 µM (inactive) | 44.6 µM (inactive) | 36.1 µM (inactive) | 15.2 µM (inactive) | 10.7 µM (inactive) | 67.3 µM (inactive) | 17.8 µM (inactive) | 52 µM (inactive) | 56.4 µM (inactive) | 59.3 µM (inactive) | 37.6 µM (inactive) | > 100 µM (inactive)
5 | CC(=O)NC(=O)/N=C1\NCCC(=O)N1CCc1c[nH]c2ccccc12 | > 100 µM (inactive) | > 100 µM | > 100 µM (inactive) | > 100 µM (inactive) | > 100 µM (inactive) | > 100 µM (inactive) | > 100 µM (inactive) | > 100 µM (inactive) | > 100 µM (inactive) | > 100 µM (inactive) | > 100 µM (inactive) | > 100 µM (inactive) | > 100 µM (inactive) | > 100 µM (inactive) | > 100 µM (inactive) | > 100 µM (inactive) | > 100 µM (inactive) | > 100 µM (inactive) | > 100 µM (inactive) | > 100 µM (inactive)
6 | CC(=O)N(CN1C(=O)CCC1C(=O)O)c1ccc(C)cc1 (stereo not given) | > 100 µM (inactive) | > 100 µM | > 100 µM (inactive) | > 100 µM (inactive) | > 100 µM (inactive) | > 100 µM (inactive) | > 100 µM (inactive) | > 100 µM (inactive) | > 100 µM (inactive) | > 100 µM (inactive) | > 100 µM (inactive) | > 100 µM (inactive) | > 100 µM (inactive) | > 100 µM (inactive) | > 100 µM (inactive) | > 100 µM (inactive) | > 100 µM (inactive) | > 100 µM (inactive) | > 100 µM (inactive) | > 100 µM (inactive)
7 | Cc1cc(/N=N/c2c(O)ccc3ccccc23)ccc1/N=N/c1cccc([N+](C)(C)C)c1 | 21.1 µM (inactive) | 31 µM | 4.17 µM (inactive) | 7.1 µM (inactive) | 8.57 µM (inactive) | 6.25 µM (inactive) | 6.41 µM (inactive) | 9.42 µM (inactive) | 74.1 µM (inactive) | > 27.1 µM (inactive) | 17.7 µM (inactive) | 4.22 µM (inactive) | 20.6 µM (inactive) | 16 µM (inactive) | 7.83 µM (inactive) | 7.11 µM (inactive) | 3.71 µM (inactive) | 10.1 µM (inactive) | 1.58 µM (inactive) | 14.7 µM (inactive)
8 | O=C1c2ccccc2C(=O)c2c1ccc1conc21 | 15.8 µM (inactive) | 2.75 µM | 8.93 µM (inactive) | 1.03 µM (active) | 0.221 µM (active) | 0.605 µM (active) | 7.06 µM (inactive) | 5.51 µM (inactive) | 0.649 µM (active) | 0.7 µM (active) | 3 µM (inactive) | 0.875 µM (active) | 2.65 µM (inactive) | 3.41 µM (inactive) | 3.52 µM (inactive) | 1.87 µM (inactive) | 5.48 µM (inactive) | 2.1 µM (inactive) | 1.62 µM (inactive) | 2.45 µM (inactive)
9 | CCCCCOC(=O)C(=O)Nc1[nH]nnc1C(N)=O | > 100 µM (inactive) | > 100 µM | > 100 µM (inactive) | > 100 µM (inactive) | > 100 µM (inactive) | > 100 µM (inactive) | > 100 µM (inactive) | > 100 µM (inactive) | > 100 µM (inactive) | > 100 µM (inactive) | > 100 µM (inactive) | > 100 µM (inactive) | > 100 µM (inactive) | > 100 µM (inactive) | > 100 µM (inactive) | > 100 µM (inactive) | > 100 µM (inactive) | > 100 µM (inactive) | > 100 µM (inactive) | > 100 µM (inactive)
10 | CC(=O)O[C@H]1CC[C@@]2(C)C(=CC[C@H]3[C@@H]4C[C@H](N5CCN(C)CC5)[C@H](OC(C)=O)[C@@]4(C)CC[C@@H]32)C1 | 15.5 µM (inactive) | 13 µM | 26.2 µM (inactive) | 5.64 µM (inactive) | 16.7 µM (inactive) | 5.08 µM (inactive) | 28.9 µM (inactive) | 21.6 µM (inactive) | 19.6 µM (inactive) | 17.6 µM (inactive) | 26.1 µM (inactive) | 4.39 µM (inactive) | 22.1 µM (inactive) | 12.5 µM (inactive) | 18 µM (inactive) | 24 µM (inactive) | 21.9 µM (inactive) | 15.5 µM (inactive) | 19.7 µM (inactive) | 11.7 µM (inactive)
11 | CC[C@H](C)[C@H]1NC(=O)[C@@H](NC(=O)[C@@H](CC(C)C)N(C)C(=O)C2C=CCN2)[C@@H](C)OC(=O)[C@H](Cc2ccc(OC)cc2)N(C)C(=O)[C@@H]2CCCN2C(=O)[C@H](CC(C)C)NC(=O)[C@@H](C)C(=O)[C@H](C(C)C)OC(=O)C[C@@H]1O (stereo not given in full) (H-[ξΔPro][dNMeL]T[X37]LP[NMeY](Me); ester 3-C) | < 0.005 µM (active) | 0.0162 µM | < 0.005 µM (active) | < 0.005 µM (active) | < 0.005 µM (active) | < 0.005 µM (active) | < 0.005 µM (active) | < 0.005 µM (active) | 0.0617 µM (active) | < 0.005 µM (active) | < 0.005 µM (active) | < 0.005 µM (active) | < 0.005 µM (active) | < 0.005 µM (active) | < 0.005 µM (active) | < 0.005 µM (active) | < 0.005 µM (active) | < 0.005 µM (active) | < 0.005 µM (active) | < 0.005 µM (active)
12 | C1=CC2C(C3CN(c4ccccc4)N=C13)C1C3C4C=CC21C=CC43 (stereo not given) | > 100 µM (inactive) | > 100 µM | > 100 µM (inactive) | > 100 µM (inactive) | > 100 µM (inactive) | > 100 µM (inactive) | > 100 µM (inactive) | > 100 µM (inactive) | > 100 µM (inactive) | > 78.5 µM (inactive) | > 100 µM (inactive) | > 100 µM (inactive) | > 100 µM (inactive) | > 100 µM (inactive) | > 100 µM (inactive) | > 100 µM (inactive) | > 100 µM (inactive) | > 100 µM (inactive) | > 100 µM (inactive) | > 100 µM (inactive)
13 | Oc1ccc2ccccc2c1OCc1nnc(CCCCCCCCc2nnc(COc3c(O)ccc4ccccc34)n2Nc2ccccc2)n1Nc1ccccc1 | 8.05 µM (inactive) | 16.5 µM | 18.2 µM (inactive) | 5.62 µM (inactive) | 15.3 µM (inactive) | 2.43 µM (inactive) | 8.32 µM (inactive) | 2.7 µM (inactive) | 8.2 µM (inactive) | 10.7 µM (inactive) | 2.51 µM (inactive) | 1.02 µM (active) | 0.223 µM (active) | 5.14 µM (inactive) | 18.2 µM (inactive) | 35.7 µM (inactive) | 20.7 µM (inactive) | 18 µM (inactive) | 19 µM (inactive) | 0.855 µM (active)
14 | N=c1oc2ccccc2cc1-c1nc2ccccc2[nH]1 | 71.3 µM (inactive) | 31.5 µM | 41 µM (inactive) | 19.9 µM (inactive) | 22.4 µM (inactive) | 15.5 µM (inactive) | > 100 µM (inactive) | 49.1 µM (inactive) | 22.3 µM (inactive) | > 100 µM (inactive) | > 100 µM (inactive) | 26.3 µM (inactive) | 78.3 µM (inactive) | 89.9 µM (inactive) | 49.2 µM (inactive) | > 100 µM (inactive) | 98.9 µM (inactive) | 36.6 µM (inactive) | 61.7 µM (inactive) | 41.4 µM (inactive)
